According to patent US8334403B1, “C-lysine conjugates as pH-controlled, light-activated reagents for double stranded DNA cleavage and associated methods” (Florida State University Research Foundation, Inc., priority 2005, dated 2012):
Where two headings read alike, the source gives them in different places. Marks after values point to notes of the source that are not given here.

Key:
pBR322 plasmid DNA = test: Plasmid relaxation assay: DNA photocleavage of supercoiled plasmid under UV irradiation; assay type: biochemical; settings: pH 6, 15 μM, 10 min of UV irradiation
Description: General information. ^1H, ^13C and ^19F NMR were collected on a Varian Gemini 300 MHz NMR spectrometer and a Bruker 300 MHz NMR spectrometer. Mass spectrometry data was collected on a Jeol JMS-600H. UV spectra were recorded on a Shimadzu UV-2100. Fluorescence spectra were obtained with SPEX FluoMax spectrofluorimeter using right-angle geometry. pH was adjusted with AB 15 plus pH meter (Accument) after standardization at 25° C. All buffers were prepared and pH-adjusted at room temperature (25° C.). Plasmid DNA Photocleavage. pBR322 plasmid DNA (4,361 b/p; from BioLabs Inc., 1 μg/μL solution in 10 mM Tris-HCl (pH 8.0), and 1 mM EDTA buffer) was diluted to a concentration of 0.01 μg/μL. The solution containing cleavage agent, DNA (30 μM/bp) in 20 mM sodium phosphate buffer was incubated for 1 hour at 30° C. Samples were placed on ice at a distance of 20 cm from 200 W Hg—Xe lamp (Spectra-Physics, Laser & Photonics Oriel Instruments with long pass filter with 324 nm cut-off wavelength). Electrophoretic Analysis. The gel electrophoresis was carried out in 1×TBE buffer at 80 V using Miligel FisherBiotech Horizontal Electrophoresis System. All gels were run on 1% agarose slab gels. Before loading, the DNA samples were mixed with 0.33 volume of tracking dye containing bromophenol blue (0.25%) and glycerol (30%) in water. After staining in ethidium bromide solution (2 μg/ml) for 1 hour, the gel was washed with water and pictures were taken with Polaroid 3000ISO type 667 film. The relative quantities of the supercoiled, nicked, and linear DNA were calculated by integrating the “area” of each spot by the image analyzer software Total/Lab (Nonlinear Dynamics Ltd., UK). The amount of supercoiled DNA was multiplied by factor of 1.4 to account for reduced ethidium bromide intercalation into supercoiled DNA. pH titration by ^1H-NMR. pH* of compound 8 (3 mM) solution in D2O containing 0.05 wt % 3-(trimethylsilyl)propionic-2,2,3,3-d4 acid, sodium salt (TSP-d4) was adjusted with 10 wt % DCI and NaOD in D2O at 25° C. under argon purged condition. Spectrometric determinations of pKa. pH of 10 μM of compound solution in H2O was adjusted with 10, 100 mM HCl (aq) and NaOH (aq) solution under argon purged condition. Excitation wavelength was 330 nm and polymethacrylate fluorimeter cuvettes were used. Absorbance and fluorescence titration with DNA. The concentrations of calf thymus DNA stock solution was determined spectophotometrically using the following molar absorptovity values: 1.32×10^4 M^−1 cm^−1 (per base pair) at 260 nm. All experiments were done in 20 mM sodium phosphate buffer at 25° C. and polymethacrylate fluorimeter cuvettes were used. The same amount of DNA was added to both sample and reference cuvettes during UV/Vis titration. Determination of excited state lifetimes. The concentration of compound solution was 10 μM in 20 mM sodium phosphate buffer. The photoluminescence lifetime measurements were conducted by exciting the samples with the output of a Nd:VO—4 (Spectra-Physics Vanguard, 2 W, 532 nm, 76 MHz, 10 ps) pumped R6G dye laser (Coherent 702-1). The output of the dye laser (600 nm, Rhodamine 6G) was cavity dumped at 1.9 MHz and frequency doubled using a BBO crystal to excite the fluorophore (the excitation wavelength used was 290 nm). Samples were excited with <1 mW power and the emission was collected at right angles onto a Chromex S3 500 is 0.5 m imaging monochromator with a 50 g/mm grating and 0.5 nm resolution. Output of the monochromator is focused into a Hamamatsu C5680 streak camera operating at a 20 ns window for the fluorophore. Intensity analysis was carried out by integrating the spectral profile in time on the streak camera. Lifetime analysis over 6-7 lifetimes of the fluorophore was conducted by binning the photoluminescence intensity collected on the streak camera over a 20 nm spectral window at the centroid value of the emission of the fluorophore. Ethidium bromide displacement. […]

[1] = Fluorometric (emission) determination of pKa; assay type: physicochemical; settings: emission; α-amino group (4, 6), ε-amino group (7)
Description: (§1) General information. ^1H, ^13C and ^19F NMR were collected on a Varian Gemini 300 MHz NMR spectrometer and a Bruker 300 MHz NMR spectrometer. Mass spectrometry data was collected on a Jeol JMS-600H. UV spectra were recorded on a Shimadzu UV-2100. Fluorescence spectra were obtained with SPEX FluoMax spectrofluorimeter using right-angle geometry. pH was adjusted with AB 15 plus pH meter (Accument) after standardization at 25° C. All buffers were prepared and pH-adjusted at room temperature (25° C.). Plasmid DNA Photocleavage. pBR322 plasmid DNA (4,361 b/p; from BioLabs Inc., 1 μg/μL solution in 10 mM Tris-HCl (pH 8.0), and 1 mM EDTA buffer) was diluted to a concentration of 0.01 μg/μL. The solution containing cleavage agent, DNA (30 μM/bp) in 20 mM sodium phosphate buffer was incubated for 1 hour at 30° C. Samples were placed on ice at a distance of 20 cm from 200 W Hg—Xe lamp (Spectra-Physics, Laser & Photonics Oriel Instruments with long pass filter with 324 nm cut-off wavelength). Electrophoretic Analysis. The gel electrophoresis was carried out in 1×TBE buffer at 80 V using Miligel FisherBiotech Horizontal Electrophoresis System. All gels were run on 1% agarose slab gels. Before loading, the DNA samples were mixed with 0.33 volume of tracking dye containing bromophenol blue (0.25%) and glycerol (30%) in water. After staining in ethidium bromide solution (2 μg/ml) for 1 hour, the gel was washed with water and pictures were taken with Polaroid 3000ISO type 667 film. The relative quantities of the supercoiled, nicked, and linear DNA were calculated by integrating the “area” of each spot by the image analyzer software Total/Lab (Nonlinear Dynamics Ltd., UK). The amount of supercoiled DNA was multiplied by factor of 1.4 to account for reduced ethidium bromide intercalation into supercoiled DNA. pH titration by ^1H-NMR. pH* of compound 8 (3 mM) solution in D2O containing 0.05 wt % 3-(trimethylsilyl)propionic-2,2,3,3-d4 acid, sodium salt (TSP-d4) was adjusted with 10 wt % DCI and NaOD in D2O at 25° C. under argon purged condition. Spectrometric determinations of pKa. pH of 10 μM of compound solution in H2O was adjusted with 10, 100 mM HCl (aq) and NaOH (aq) solution under argon purged condition. Excitation wavelength was 330 nm and polymethacrylate fluorimeter cuvettes were used. Absorbance and fluorescence titration with DNA. The concentrations of calf thymus DNA stock solution was determined spectophotometrically using the following molar absorptovity values: 1.32×10^4 M^−1 cm^−1 (per base pair) at 260 nm. All experiments were done in 20 mM sodium phosphate buffer at 25° C. and polymethacrylate fluorimeter cuvettes were used. The same amount of DNA was added to both sample and reference cuvettes during UV/Vis titration. Determination of excited state lifetimes. The concentration of compound solution was 10 μM in 20 mM sodium phosphate buffer. The photoluminescence lifetime measurements were conducted by exciting the samples with the output of a Nd:VO—4 (Spectra-Physics Vanguard, 2 W, 532 nm, 76 MHz, 10 ps) pumped R6G dye laser (Coherent 702-1). The output of the dye laser (600 nm, Rhodamine 6G) was cavity dumped at 1.9 MHz and frequency doubled using a BBO crystal to excite the fluorophore (the excitation wavelength used was 290 nm). Samples were excited with <1 mW power and the emission was collected at right angles onto a Chromex S3 500 is 0.5 m imaging monochromator with a 50 g/mm grating and 0.5 nm resolution. […]

[2] = UV-absorption titration determination of pKa; assay type: physicochemical
Description: as §1

[3] = pH (pD) titration by 1H-NMR in D2O; assay type: physicochemical; settings: uncorrected
Description: General information. ^1H, ^13C and ^19F NMR were collected on a Varian Gemini 300 MHz NMR spectrometer and a Bruker 300 MHz NMR spectrometer. Mass spectrometry data was collected on a Jeol JMS-600H. UV spectra were recorded on a Shimadzu UV-2100. Fluorescence spectra were obtained with SPEX FluoMax spectrofluorimeter using right-angle geometry. pH was adjusted with AB 15 plus pH meter (Accument) after standardization at 25° C. All buffers were prepared and pH-adjusted at room temperature (25° C.). Plasmid DNA Photocleavage. pBR322 plasmid DNA (4,361 b/p; from BioLabs Inc., 1 μg/μL solution in 10 mM Tris-HCl (pH 8.0), and 1 mM EDTA buffer) was diluted to a concentration of 0.01 μg/μL. The solution containing cleavage agent, DNA (30 μM/bp) in 20 mM sodium phosphate buffer was incubated for 1 hour at 30° C. […] The relative quantities of the supercoiled, nicked, and linear DNA were calculated by integrating the “area” of each spot by the image analyzer software Total/Lab (Nonlinear Dynamics Ltd., UK). […] Absorbance and fluorescence titration with DNA. The concentrations of calf thymus DNA stock solution was determined spectophotometrically using the following molar absorptovity values: 1.32×10^4 M^−1 cm^−1 (per base pair) at 260 nm. […]

[4] = published literature; cited from earlier work
DNA = settings: cited from earlier work

For Cl.NCCCCCC(=O)Nc1ccc(C#Cc2c(F)c(F)nc(F)c2F)cc1 [Compound 7, 6-Aminohexanoic acid [4-(2,3,5,6-tetrafluoro-pyridin-4-ylethynyl)-phenyl]-amide Hydrochloride], the ds-cleavage (pBR322 plasmid DNA) was “do not produce any ds-cleavage”, the pKa1 [1] was 10.8 and the “pKa for the ε-ammonium group lower by absorption than derived from the fluorescence changes” value ([2]; absorption vs fluorescence) was greater than 1 pKa units. The pKa1 ([2]; absorption, α-amino group (4, 6), ε-amino group (7)) was 9.4.

With Cl.Cl.NCCCC[C@H](N)C(=O)Nc1ccccc1 [Compound 8, (S)-2,6-Diaminohexanoic acid phenyl-amide dihydrochloride] the “pKa1 (α-amino group)” value [3] was 7.56 and the “pKa2 (ε-amino group)” value [3] was 10.75.

In the case of NCCCC[C@H](N)C(=O)O [Lysine], the pKa1 [4] is listed as 8.95^b and the pKa2 [4] is listed as 10.53^b.

For COc1cc(CCN)c2c(c1OC)SS[S+]2[O-] (stereo not shown) [Varacin C], the “extent of single stranded (ss) DNA cleavage” value (DNA; pH 5.5, 5 μM antibiotic loading) is given as 47% and the “extent of single stranded (ss) DNA cleavage” value (DNA; pH 7) is given as 23%.
